Assay results published in publication PMC5882690, “Mechanical characteristics of beta sheet-forming peptide hydrogels are dependent on peptide sequence, concentration and buffer composition” (Royal Society Open Science, 2018).
Where a SMILES comes first, the peptide text is derived from it. [ ]: non-standard residue; d: D form. Orn = NCCC[C@H](N)C(=O)O

Experiments:
[1] = biological target: T1, human neutrophil elastase (Homo sapiens, UniProt P08246); assay: SAP hydrogel degradation by human neutrophil elastase; type: in vitro ADME; details: human neutrophil elastase 100 µg ml^-1 (86 units ml^-1) in PBS, 37°C, 5% CO2, 20 mg ml^-1 P11-4, 15 mg ml^-1 others, Qubit Protein Assay, mean ± SD, n = 3
T1 construct: purchased Innovative Research, USA
T1 sequence (P08246 30-267): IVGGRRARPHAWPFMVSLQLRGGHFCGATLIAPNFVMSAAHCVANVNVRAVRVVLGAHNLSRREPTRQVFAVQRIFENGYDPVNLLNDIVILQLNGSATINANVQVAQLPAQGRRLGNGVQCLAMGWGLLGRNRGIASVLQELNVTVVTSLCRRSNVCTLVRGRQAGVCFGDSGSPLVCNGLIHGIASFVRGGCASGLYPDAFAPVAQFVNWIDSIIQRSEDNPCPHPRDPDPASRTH
Method: SAP hydrogel dissolution and degradation properties of the peptides in the presence and absence of neutrophilic elastase and microorganisms were measured by determining the peptide content of the supernatant. Therefore, SAPs were assembled in PBS at concentrations of 20 mg ml^−1 for P11-4 and 15 mg ml^−1 for P11-8, P11-13/14 and P11-28/29. The assay was performed in a 96-well plate with gel volumes of 100 µl well^−1. 86 units ml^−1 elastase (Innovative Research, USA) (100 µg ml^−1) were added to the assembled peptides in PBS solution. After 24 h incubation at 37°C and 5% CO2, 10 µl of the supernatant was sterilely removed after 24 and 168 h and measured indirectly by monomeric peptide concentration in the supernatant using the Qubit® Protein Assay (Q33211; Thermo Fisher; fluorescence at 485/590 nm) and transferred back for the remainder of the experiment allowing peptide hydrogel degradation measurement without disturbing the hydrogel to buffer fluid balance. The measurements are based on the fact that degraded peptides cause disassembly of the fibrils, as assembly rules are no longer given, resulting in an increase in monomeric SAP in solution. SAP concentrations were calculated based on respective peptide standard curves. For data analysis, SAP concentrations measured in the supernatant were calculated as a percentage of the specific starting concentrations of each peptide system. Statistical analysis was done using a two-way ANOVA followed by Sidak's multiple comparison test.

[2] = cited from earlier work
Text: The topographical structure of SAP hydrogels is important for the three-dimensional arrangement of cells within scaffolds. Zhang et al. state that the fibres of SAP hydrogels resemble the nanometre scale of natural polymer networks and thus allow three-dimensional cell growth. […] (figure 1). […] Moreover, they observed the formation fibre entanglements with diameters of 30 nm. The phenomenon of fibril clustering was also reported by Zhang et al. for the peptides KFE8 and KLD12, characterized by a typical single fibre width of 7 nm and thicker diameters for the bundles of fibres.

CC(=O)N[C@@H](CCC(N)=O)C(=O)N[C@@H](CCC(N)=O)C(=O)N[C@@H](CCCNC(=N)N)C(=O)N[C@@H](Cc1ccccc1)C(=O)N[C@@H](CCCN)C(=O)N[C@@H](Cc1c[nH]c2ccccc12)C(=O)N[C@@H](CCCN)C(=O)N[C@@H](Cc1ccccc1)C(=O)N[C@@H](CCC(=O)O)C(=O)N[C@@H](CCC(N)=O)C(=O)N[C@@H](CCC(N)=O)C(N)=O [P11-8, CH3CO-QQRFOWOFEQQ-NH2] (Ac-QQRF[Orn]W[Orn]FEQQ-NH2)
relative peptide amount in supernatant (% of peptide starting concentration) ([1]; 1 d): 10.4± 3.9%
relative peptide amount in supernatant (% of peptide starting concentration) ([1]; 7 d): 10.4± 1.3%

KLD12 [reference compound]
typical single fibre width ([2]; literature): 7 nm

RADA16 [reference compound]
fibre diameter ([2]; literature value): approximately 10 nm
